Test results published in patent US6410810B1, “Handling method of (fluoroaryl) borane compound and preparing method of hydrocarbon solution” (Nippon Shokubai Co., Ltd., priority 1997, dated 2002).

Description: The cake is analyzed by ^19F-NMR. More specifically, ^19F-NMR is measured under predetermined conditions using p-fluorotoluene as an internal standard reagent. Then, a peak integral of a fluorine atom of p-fluorotoluene, and a peak integral of fluorine atoms at the ortho-position of a pentafluorophenyl group in tris(pentafluorophenyl)borane are computed from the resulting ^19F-NMR chart first, and thence a weight of tris(pentafluorophenyl)borane is computed using the above two peak integrals.
Here, 0.4963 g (purity: 99%, area ratio) of powders of tris(pentafluorophenyl)borane and 16.0878 g of IsoparE are charged to a vessel, in which the air has been displaced by a nitrogen gas satisfactorily, after which the mixture is stirred for 3 hours or so at 28° C. with stirring.
After the solution is cooled to room temperature, the supernatant is analyzed in the same manner as Example 1 above using ^19F-NMR.

Fc1c(F)c(F)c(B(c2c(F)c(F)c(F)c(F)c2F)c2c(F)c(F)c(F)c(F)c2F)c(F)c1F [tris(pentafluorophenyl)borane]
concentration of tris(pentafluorophenyl)borane in supernatant: 0.91 wt % | solubility with respect to IsoparE: 0.91 wt % | temperature at which completely dissolved into IsoparE (0.4963 g powders in 16.0878 g IsoparE, heated): 87 °C | dissolution into IsoparE (0.4963 g powders in 16.0878 g IsoparE, stirred 3 hours or so at 28° C.): does not dissolve into IsoparE completely | purity after dissolving with heating (stability) (3 wt %): 83.0 % (area ratio) | temperature at which the solution starts to crystallize on cooling (IsoparE solution allowed to stand and cooled): 63 °C
